ChEMBL document CHEMBL1255493, “In vitro activity of telavancin against a contemporary worldwide collection of Staphylococcus aureus isolates” (2010)
Converted amounts (≈) assume the structure as drawn. The source made the active and inactive calls. The rule behind the calls is not given here.

Assays:
Type in all cases: functional
Staphylococcus aureus [1] = test: Antibacterial activity against methicillin-susceptible Staphylococcus aureus clinical isolates by CLSi method
Staphylococcus aureus [2] = test: Antibacterial activity against methicillin-resistant Staphylococcus aureus clinical isolates assessed as susceptible isolates by CLSI method
Staphylococcus aureus [3] = test: Antibacterial activity against methicillin-susceptible Staphylococcus aureus clinical isolates assessed as resistant isolates by EUCAST method
Staphylococcus aureus [4] = test: Antibacterial activity against methicillin-susceptible Staphylococcus aureus clinical isolates assessed as susceptible isolates by EUCAST method
Staphylococcus aureus [5] = test: Antibacterial activity against methicillin-resistant Staphylococcus aureus clinical isolates assessed as resistant isolates by CLSI method
Staphylococcus aureus [6] = test: Antibacterial activity against methicillin-susceptible Staphylococcus aureus clinical isolates assessed as resistant isolates by CLSI method
Staphylococcus aureus [7] = test: Antibacterial activity against methicillin-susceptible Staphylococcus aureus clinical isolates assessed as susceptible isolates by CLSI method
Staphylococcus aureus [8] = test: Antibacterial activity against methicillin-resistant Staphylococcus aureus clinical isolates assessed as susceptible isolates by EUCAST method
Staphylococcus aureus [9] = test: Antibacterial activity against methicillin-resistant Staphylococcus aureus clinical isolates by CLSi method
Staphylococcus aureus [10] = test: Antibacterial activity against methicillin-resistant Staphylococcus aureus clinical isolates assessed as resistant isolates by EUCAST method
Staphylococcus aureus [11] = test: Antibacterial activity against methicillin-resistant Staphylococcus aureus clinical isolates assessed as susceptibility breakpoint

Compound | MIC50 (Staphylococcus aureus [1]) | MIC90 (Staphylococcus aureus [1]) | Activity (Staphylococcus aureus [2]) | Activity (Staphylococcus aureus [3]) | Activity (Staphylococcus aureus [4]) | Activity (Staphylococcus aureus [5]) | Activity (Staphylococcus aureus [6]) | Activity (Staphylococcus aureus [7]) | Activity (Staphylococcus aureus [8]) | MIC50 (Staphylococcus aureus [9]) | MIC90 (Staphylococcus aureus [9]) | Activity (Staphylococcus aureus [10]) | Activity (Staphylococcus aureus [11])
CN[C@H](CC(C)C)C(=O)N[C@H]1C(=O)N[C@@H](CC(N)=O)C(=O)N[C@H]2C(=O)N[C@H]3C(=O)N[C@H](C(=O)N[C@H](C(=O)O)c4cc(O)cc(O)c4-c4cc3ccc4O)[C@H](O)c3ccc(c(Cl)c3)Oc3cc2cc(c3O[C@@H]2O[C@H](CO)[C@@H](O)[C@H](O)[C@H]2O[C@H]2C[C@](C)(N)[C@H](O)[C@H](C)O2)Oc2ccc(cc2Cl)[C@H]1O [VANCOMYCIN] | 1 µg/mL (≈ 0.69 µM) | 1 µg/mL (≈ 0.69 µM) | 99.9% | 0% | 100% | 0% | 0% | 100% | 99.9% | 1 µg/mL (≈ 0.69 µM) | 1 µg/mL (≈ 0.69 µM) | 0.1% | 
GENTAMICIN | < 1 µg/mL | < 1 µg/mL | 77.9% | 3.6% | 96.4% | 21.1% | 3.1% | 96.6% | 77.1% | < 1 µg/mL | > 8 µg/mL | 22.9% | 
CC(=O)NC[C@H]1CN(c2ccc(N3CCOCC3)c(F)c2)C(=O)O1 [LINEZOLID] | 2 µg/mL (≈ 5.93 µM) | 2 µg/mL (≈ 5.93 µM) |  | 0% | 100% | inactive | inactive | 100% |  | 1 µg/mL (≈ 2.96 µM) | 2 µg/mL (≈ 5.93 µM) | <0.1% | 
C[C@H]1COc2c(N3CCN(C)CC3)c(F)cc3c(=O)c(C(=O)O)cn1c23.C[C@H]1COc2c(N3CCN(C)CC3)c(F)cc3c(=O)c(C(=O)O)cn1c23.O [LEVOFLOXACIN] | ≤ 0.5 µg/mL | ≤ 0.5 µg/mL | 21.6% | 6.8% | 92.9% | 77.9% | 6.8% | 92.9% | 21.6% | > 4 µg/mL | > 4 µg/mL | 77.9% | 
CCCCCCCCCC(=O)N[C@@H](Cc1c[nH]c2ccccc12)C(=O)N[C@H](CC(N)=O)C(=O)N[C@@H](CC(=O)O)C(=O)N[C@@H]1C(=O)NCC(=O)N[C@@H](CCCN)C(=O)N[C@@H](CC(=O)O)C(=O)N[C@H](C)C(=O)N[C@@H](CC(=O)O)C(=O)NCC(=O)N[C@H](CO)C(=O)N[C@@H]([C@H](C)CC(=O)O)C(=O)N[C@@H](CC(=O)c2ccccc2N)C(=O)O[C@@H]1C | 0.25 µg/mL (≈ 0.154 µM) | 0.5 µg/mL (≈ 0.309 µM) | 99.9% | 0% | 100% | inactive | inactive | 100% | 99.9% | 0.25 µg/mL (≈ 0.154 µM) | 0.5 µg/mL (≈ 0.309 µM) | 0.1% | 
CN(C)[C@@H]1C(O)=C(C(N)=O)C(=O)[C@@]2(O)C(O)=C3C(=O)c4c(O)cccc4[C@@](C)(O)[C@H]3C[C@@H]12 [TETRACYCLINE] | ≤ 1 µg/mL | ≤ 1 µg/mL | 80.7% | 5.8% | 94.2% | 19.1% | 5% | 94.6% | 80.1% |  |  | 19.9% | 
CCCCCCCCCCNCCN[C@@]1(C)C[C@H](O[C@H]2[C@H](Oc3c4cc5cc3Oc3ccc(cc3Cl)[C@@H](O)[C@@H](NC(=O)[C@@H](CC(C)C)NC)C(=O)N[C@@H](CC(N)=O)C(=O)N[C@H]5C(=O)N[C@H]3C(=O)N[C@H](C(=O)N[C@H](C(=O)O)c5cc(O)c(CNCP(=O)(O)O)c(O)c5-c5cc3ccc5O)[C@H](O)c3ccc(c(Cl)c3)O4)O[C@H](CO)[C@@H](O)[C@@H]2O)O[C@@H](C)[C@H]1O [TELAVANCIN] | 0.12 µg/mL (≈ 0.0684 µM) | 0.25 µg/mL (≈ 0.142 µM) |  | inactive | 100% | inactive | inactive | 100% |  | 0.12 µg/mL (≈ 0.0684 µM) | 0.25 µg/mL (≈ 0.142 µM) | inactive | <=1 ug ml-1
CC[C@H]1OC(=O)[C@H](C)[C@@H](O[C@H]2C[C@@](C)(OC)[C@@H](O)[C@H](C)O2)[C@H](C)[C@@H](O[C@@H]2O[C@H](C)C[C@H](N(C)C)[C@H]2O)[C@](C)(O)C[C@@H](C)C(=O)[C@H](C)[C@@H](O)[C@]1(C)O [ERYTHROMYCIN] | ≤ 0.25 µg/mL | > 4 µg/mL | 13.9% | 25.2% | 74.5% | 85.6% | 25.2% | 74.3% | 14.2% | > 4 µg/mL |  | 85.6% | 
CCC[C@@H]1C[C@@H](C(=O)N[C@@H]([C@H]2O[C@H](SC)[C@H](O)[C@@H](O)[C@H]2O)[C@H](C)Cl)N(C)C1 [CLINDAMYCIN] | ≤ 0.25 µg/mL | ≤ 0.25 µg/mL | 54.7% | 5% | 94.6% | 45% | 4.9% | 95% | 54.3% |  | > 2 µg/mL | 45.3% | 
